# Reference: ChEMBL document CHEMBL4177767, “Discovery of N2-(4-Amino-cyclohexyl)-9-cyclopentyl- N6-(4-morpholin-4-ylmethyl-phenyl)- 9H-purine-2,6-diamine as a Potent FLT3 Kinase Inhibitor for Acute Myeloid Leukemia with FLT3 Mutations” (J Med Chem, 2018)
# The source made the active and inactive calls. No cut-off for these calls is given here.
# Tests used:
# U-937 = experiment: cells; conditions: Homo sapiens, U-937, 72 h
# MV4-11 [1] = experiment: Growth inhibition of human MV4-11 cells after 72 hrs by calcein AM dye-based fluorescence assay; assay type: functional; conditions: MV4-11, 72 h
# MV4-11 [2] = experiment: Cell cycle arrest in human MV4-11 cells assessed as accumulation at G2/M phase at 0.1 nM after 24 hrs by propidium iodide staining-based flow cytometric method (reference value: 15.9%); assay type: functional
# MV4-11 [3] = experiment: Cell cycle arrest in human MV4-11 cells assessed as accumulation at sub-G1 phase at 0.01 nM after 24 hrs by propidium iodide staining-based flow cytometric method (reference value: 9.2%); assay type: functional
# [4] = target: Tyrosine-protein kinase Yes (Homo sapiens) (UniProt P07947); conditions: 10 nM
# Description: Inhibition of human full length N-terminal GST-tagged Yes expressed in baculovirus expression system at 10 nM relative to control
# [5] = target: Proto-oncogene tyrosine-protein kinase Src (Homo sapiens) (UniProt P12931); conditions: 10 nM
# Description: Inhibition of full length human N-terminal GST-tagged SRC expressed in baculovirus expression system at 10 nM relative to control
# Mus musculus [6] = organism: Mus musculus; experiment: animal or person; conditions: MV4-11, ip, 2 h, read-out: INH
# [7] = test system: Receptor-type tyrosine-protein kinase FLT3 (Homo sapiens), P36888 [UNDEFINED MUTATION]; conditions: MV4-11, at 1 nM
# Description: Inhibition of FLT3 ITD mutant autophosphorylation at Y842 in human MV4-11 cells at 1 nM after 1 hr by immunoblot analysis
# K562 = experiment: cells; conditions: Homo sapiens, K562, 72 h
# [8] = target: Platelet-derived growth factor receptor beta (Homo sapiens) (UniProt P09619); conditions: 10 nM
# Description: Inhibition of human N-terminal GST-tagged PDGFRbeta cytoplasmic domain expressed in baculovirus expression system at 10 nM relative to control
# MV4-11 [9] = experiment: Cell cycle arrest in human MV4-11 cells assessed as accumulation at G1 phase at 0.01 nM after 24 hrs by propidium iodide staining-based flow cytometric method (reference value: 56%); assay type: functional
# MV4-11 [10] = experiment: Cell cycle arrest in human MV4-11 cells assessed as accumulation at sub-G1 phase at 100 nM after 24 hrs by propidium iodide staining-based flow cytometric method (reference value: 9.2%); assay type: functional
# [11] = target: Dual specificity protein kinase CLK1 (Homo sapiens) (UniProt P49759); conditions: 10 nM
# Description: Inhibition of human N-terminal GST-tagged CLK1 catalytic domain expressed in baculovirus expression system at 10 nM relative to control
# MV4-11 [12] = experiment: Cell cycle arrest in human MV4-11 cells assessed as accumulation at sub-G1 phase at 0.1 nM after 24 hrs by propidium iodide staining-based flow cytometric method (reference value: 9.2%); assay type: functional
# MV4-11 [13] = experiment: Cell cycle arrest in human MV4-11 cells assessed as accumulation at G2/M phase at 0.01 nM after 24 hrs by propidium iodide staining-based flow cytometric method (reference value: 15.9%); assay type: functional
# MV4-11 [14] = experiment: Cell cycle arrest in human MV4-11 cells assessed as accumulation at S phase at 10 nM after 24 hrs by propidium iodide staining-based flow cytometric method (reference value: 28.1%); assay type: functional
# in vitro [15] = conditions: human, HUVEC
# MV4-11 [16] = experiment: Cell cycle arrest in human MV4-11 cells assessed as accumulation at G1 phase at 100 nM after 24 hrs by propidium iodide staining-based flow cytometric method (reference value: 56%); assay type: functional
# Rattus norvegicus [17] = experiment: Toxicity in Wistar rat assessed as clinical signs of intoxication at 200 mg/kg, po measured over 15 days; assay type: organism-based; conditions: in vivo, 360 h
# MV4-11 [18] = experiment: Cell cycle arrest in human MV4-11 cells assessed as accumulation at G2/M phase at 10 nM after 24 hrs by propidium iodide staining-based flow cytometric method (reference value: 15.9%); assay type: functional
# MCF7 = experiment: cells; conditions: Homo sapiens, MCF7, 72 h
# MV4-11 [19] = experiment: Induction of apoptosis in human MV4-11 cells assessed as increase in PARP1 cleavage at 10 to 100 nM after 24 hrs by immunoblot method; assay type: functional, cell-based
# MV4-11 [20] = experiment: Cell cycle arrest in human MV4-11 cells assessed as accumulation at S phase at 100 nM after 24 hrs by propidium iodide staining-based flow cytometric method (reference value: 28.1%); assay type: functional
# [21] = test system: Receptor-type tyrosine-protein kinase FLT3 (Homo sapiens), P36888 [UNDEFINED MUTATION]; conditions: MV4-11, at 1 nM; remark: listed apart in the source
# Description: Inhibition of FLT3 ITD mutant autophosphorylation at Y589/591 in human MV4-11 cells at 1 nM after 1 hr by immunoblot analysis
# [22] = test system: Receptor-type tyrosine-protein kinase FLT3 (Homo sapiens), P36888 [UNDEFINED MUTATION]; conditions: MV4-11, at 0.01 to 100 nM
# Description: Inhibition of FLT3 ITD mutant in human MV4-11 cells assessed as decrease in STAT5 phosphorylation at Y694 at 0.01 to 100 nM after 1 hr by immunoblot analysis
# [23] = test system: Receptor-type tyrosine-protein kinase FLT3 (Homo sapiens), P36888 [UNDEFINED MUTATION]
# Description: Inhibition of FLT3 ITD mutant (unknown origin) transfected in mouse BA/F3 cells assessed as growth inhibition after 72 hrs by calcein AM dye-based fluorescence assay
# Mus musculus [24] = experiment: In vivo inhibition of FLT3 ITD mutant in human MV4-11 cells xenografted in athymic nu/nu mouse assessed as decrease in STAT5 phosphorylation at Y694 at 10 mg/kg, ip after 24 hrs by immunoblot method relative to control; assay type: functional; conditions: MV4-11, ip
# [25] = test system: Receptor-type tyrosine-protein kinase FLT3 (Homo sapiens), P36888 [UNDEFINED MUTATION]; conditions: MV4-11, at 0.01 to 100 nM; remark: listed apart in the source
# Description: Inhibition of FLT3 ITD mutant in human MV4-11 cells assessed as decrease in AKT phosphorylation at S473 at 0.01 to 100 nM after 1 hr by immunoblot analysis
# MV4-11 [26] = experiment: Cell cycle arrest in human MV4-11 cells assessed as accumulation at S phase at 0.1 nM after 24 hrs by propidium iodide staining-based flow cytometric method (reference value: 28.1%); assay type: functional
# MOLM-13 = experiment: cells; conditions: Homo sapiens, MOLM-13, 72 h
# Rattus norvegicus [27] = experiment: Toxicity in Wistar rat assessed as mortality at 100 mg/kg, iv measured over 15 days; assay type: organism-based; conditions: in vivo, 360 h
# [28] = target: Calcium/calmodulin-dependent protein kinase type II subunit gamma (Homo sapiens) (UniProt Q13555); conditions: 10 nM
# Description: Inhibition of full length human N-terminal GST-tagged CAMK2gamma expressed in baculovirus expression system at 10 nM relative to control
# in vitro [29] = conditions: human, MRC5 cells
# [30] = target: Serine/threonine-protein kinase SIK1 (Homo sapiens) (UniProt P57059); conditions: 10 nM
# Description: Inhibition of full length human N-terminal GST-tagged SIK expressed in baculovirus expression system at 10 nM relative to control
# MV4-11 [31] = experiment: Cell cycle arrest in human MV4-11 cells assessed as accumulation at G1 phase at 10 nM after 24 hrs by propidium iodide staining-based flow cytometric method (reference value: 56%); assay type: functional
# Rattus norvegicus [32] = experiment: Toxicity in Wistar rat assessed as pathological macroscopic changes at 200 mg/kg, po after 15 days; assay type: organism-based; conditions: in vivo, 360 h
# MV4-11 [33] = experiment: Induction of apoptosis in human MV4-11 cells assessed as decrease in Mcl-1 levels at 10 to 100 nM after 24 hrs by immunoblot method; assay type: functional, cell-based
# [34] = target: Serine/threonine-protein kinase SIK2 (Homo sapiens) (UniProt Q9H0K1); conditions: 10 nM
# Description: Inhibition of full length human N-terminal GST-tagged QIK expressed in baculovirus expression system at 10 nM relative to control
# [35] = target: Receptor-type tyrosine-protein kinase FLT3 (Homo sapiens, UniProt P36888, D835Y); experiment: biochemical; assay type: cell-based, Sf9
# Description: Inhibition of N-terminal GST/His6-fused recombinant human FLT3 (R571 to S993 residues) D835Y mutant expressed in Sf9 insect cells using poly (Ala,Glu,Lys,Tyr) 6:2:5:1 hydrobromide as substrate in presence of [gamma-33P]ATP
# [36] = target: Activated CDC42 kinase 1 (Homo sapiens) (UniProt Q07912); conditions: 10 nM
# Chain of Activated CDC42 kinase 1 (Homo sapiens) (Q07912 whole entry, looked up): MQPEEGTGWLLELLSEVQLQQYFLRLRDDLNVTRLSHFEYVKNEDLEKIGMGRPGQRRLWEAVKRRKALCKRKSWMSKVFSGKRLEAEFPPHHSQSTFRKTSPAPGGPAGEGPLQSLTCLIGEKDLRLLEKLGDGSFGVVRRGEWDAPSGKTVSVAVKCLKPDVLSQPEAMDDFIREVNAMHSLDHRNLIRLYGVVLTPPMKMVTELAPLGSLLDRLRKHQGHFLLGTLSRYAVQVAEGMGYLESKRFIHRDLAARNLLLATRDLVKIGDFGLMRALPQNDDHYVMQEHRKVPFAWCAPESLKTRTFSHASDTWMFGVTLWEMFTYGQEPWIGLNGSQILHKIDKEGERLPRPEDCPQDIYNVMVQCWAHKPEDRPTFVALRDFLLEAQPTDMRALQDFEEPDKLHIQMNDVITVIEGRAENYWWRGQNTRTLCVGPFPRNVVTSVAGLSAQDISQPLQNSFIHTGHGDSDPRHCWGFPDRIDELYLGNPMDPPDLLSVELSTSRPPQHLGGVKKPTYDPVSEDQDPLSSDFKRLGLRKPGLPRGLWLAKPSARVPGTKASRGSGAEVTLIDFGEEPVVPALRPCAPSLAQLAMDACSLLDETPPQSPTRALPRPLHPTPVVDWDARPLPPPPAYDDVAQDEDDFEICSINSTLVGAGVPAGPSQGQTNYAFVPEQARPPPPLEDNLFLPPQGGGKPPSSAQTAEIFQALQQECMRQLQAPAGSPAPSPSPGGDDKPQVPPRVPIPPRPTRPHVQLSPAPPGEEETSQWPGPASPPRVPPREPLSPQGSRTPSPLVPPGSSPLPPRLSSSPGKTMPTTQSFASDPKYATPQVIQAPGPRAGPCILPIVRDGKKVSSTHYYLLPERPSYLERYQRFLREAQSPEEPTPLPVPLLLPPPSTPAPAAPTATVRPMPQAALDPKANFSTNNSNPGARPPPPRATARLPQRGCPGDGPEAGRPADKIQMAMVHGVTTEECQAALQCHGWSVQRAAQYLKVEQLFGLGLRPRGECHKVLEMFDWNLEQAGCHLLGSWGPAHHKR
# Description: Inhibition of human N-terminal GST-tagged ACK catalytic domain expressed in baculovirus expression system at 10 nM relative to control
# Chain of Serine/threonine-protein kinase SIK2 (Homo sapiens) (Q9H0K1 whole entry, looked up): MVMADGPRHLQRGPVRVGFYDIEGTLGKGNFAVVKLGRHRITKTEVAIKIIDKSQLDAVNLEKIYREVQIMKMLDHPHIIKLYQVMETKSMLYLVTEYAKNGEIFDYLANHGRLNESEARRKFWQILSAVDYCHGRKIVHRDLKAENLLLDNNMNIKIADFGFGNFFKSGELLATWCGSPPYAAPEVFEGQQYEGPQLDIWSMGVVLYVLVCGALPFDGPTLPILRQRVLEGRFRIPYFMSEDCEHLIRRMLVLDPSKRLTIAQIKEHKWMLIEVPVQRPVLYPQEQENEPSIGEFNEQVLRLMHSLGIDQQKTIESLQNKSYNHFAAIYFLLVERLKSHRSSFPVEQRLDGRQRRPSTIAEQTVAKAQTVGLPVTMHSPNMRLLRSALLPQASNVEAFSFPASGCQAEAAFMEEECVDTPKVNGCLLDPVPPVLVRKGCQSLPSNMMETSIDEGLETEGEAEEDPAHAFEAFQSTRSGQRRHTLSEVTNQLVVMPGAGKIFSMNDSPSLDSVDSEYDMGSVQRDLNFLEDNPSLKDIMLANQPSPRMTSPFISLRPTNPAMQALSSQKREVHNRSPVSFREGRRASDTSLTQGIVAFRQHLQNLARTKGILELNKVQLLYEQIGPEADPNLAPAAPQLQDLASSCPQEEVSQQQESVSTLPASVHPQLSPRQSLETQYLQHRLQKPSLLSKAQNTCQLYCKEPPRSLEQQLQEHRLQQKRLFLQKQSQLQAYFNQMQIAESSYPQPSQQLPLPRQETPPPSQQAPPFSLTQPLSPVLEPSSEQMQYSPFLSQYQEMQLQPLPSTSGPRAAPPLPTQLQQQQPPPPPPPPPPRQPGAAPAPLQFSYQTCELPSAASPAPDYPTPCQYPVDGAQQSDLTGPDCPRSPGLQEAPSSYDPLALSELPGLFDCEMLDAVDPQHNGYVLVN
# Chain of Tyrosine-protein kinase Yes (Homo sapiens) (P07947 2-543 limits assumed): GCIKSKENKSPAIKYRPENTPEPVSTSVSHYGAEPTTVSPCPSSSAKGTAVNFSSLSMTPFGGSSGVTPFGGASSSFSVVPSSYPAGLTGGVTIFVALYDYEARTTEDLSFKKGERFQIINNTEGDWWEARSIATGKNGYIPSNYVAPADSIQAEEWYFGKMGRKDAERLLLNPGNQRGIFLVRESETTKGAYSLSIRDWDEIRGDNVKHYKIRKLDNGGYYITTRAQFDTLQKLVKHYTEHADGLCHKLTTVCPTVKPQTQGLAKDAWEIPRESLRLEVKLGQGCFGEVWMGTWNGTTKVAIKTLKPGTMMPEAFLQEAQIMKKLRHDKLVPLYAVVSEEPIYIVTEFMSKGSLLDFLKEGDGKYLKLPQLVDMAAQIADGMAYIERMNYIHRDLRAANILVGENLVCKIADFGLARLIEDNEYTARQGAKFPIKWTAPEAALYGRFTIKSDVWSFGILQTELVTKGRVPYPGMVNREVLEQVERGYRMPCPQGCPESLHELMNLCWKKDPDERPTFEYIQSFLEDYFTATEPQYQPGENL
# Chain of Platelet-derived growth factor receptor beta (Homo sapiens) (P09619 whole entry): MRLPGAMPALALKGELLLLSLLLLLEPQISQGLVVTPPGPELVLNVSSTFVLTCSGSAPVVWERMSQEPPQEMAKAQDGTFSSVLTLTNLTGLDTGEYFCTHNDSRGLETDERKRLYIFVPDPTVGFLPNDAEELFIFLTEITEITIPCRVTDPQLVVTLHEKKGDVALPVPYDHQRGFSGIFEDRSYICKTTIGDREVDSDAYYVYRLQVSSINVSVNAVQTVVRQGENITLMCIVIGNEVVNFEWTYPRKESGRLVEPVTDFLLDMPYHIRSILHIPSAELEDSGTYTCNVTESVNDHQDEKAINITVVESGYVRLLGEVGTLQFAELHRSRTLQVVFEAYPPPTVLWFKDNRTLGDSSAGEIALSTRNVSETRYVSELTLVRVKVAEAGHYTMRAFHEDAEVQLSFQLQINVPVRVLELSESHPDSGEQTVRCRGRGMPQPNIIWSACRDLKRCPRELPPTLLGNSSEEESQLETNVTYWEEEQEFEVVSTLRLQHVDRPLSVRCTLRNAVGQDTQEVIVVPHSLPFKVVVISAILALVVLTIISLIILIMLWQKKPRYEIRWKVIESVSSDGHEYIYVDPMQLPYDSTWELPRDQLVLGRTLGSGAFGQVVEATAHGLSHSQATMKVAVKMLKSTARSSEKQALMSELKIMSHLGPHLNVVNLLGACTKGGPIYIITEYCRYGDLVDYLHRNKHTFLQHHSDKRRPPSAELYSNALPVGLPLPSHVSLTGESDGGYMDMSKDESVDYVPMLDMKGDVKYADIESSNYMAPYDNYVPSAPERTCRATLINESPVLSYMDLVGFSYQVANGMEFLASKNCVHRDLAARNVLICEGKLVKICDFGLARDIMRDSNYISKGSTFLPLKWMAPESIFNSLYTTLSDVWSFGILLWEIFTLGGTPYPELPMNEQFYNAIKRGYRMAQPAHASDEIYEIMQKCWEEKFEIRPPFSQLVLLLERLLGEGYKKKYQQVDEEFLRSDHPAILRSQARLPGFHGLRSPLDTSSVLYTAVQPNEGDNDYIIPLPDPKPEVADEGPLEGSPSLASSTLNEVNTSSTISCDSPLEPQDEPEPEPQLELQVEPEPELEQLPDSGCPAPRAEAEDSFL
# Chain of Calcium/calmodulin-dependent protein kinase type II subunit gamma (Homo sapiens) (Q13555 whole entry): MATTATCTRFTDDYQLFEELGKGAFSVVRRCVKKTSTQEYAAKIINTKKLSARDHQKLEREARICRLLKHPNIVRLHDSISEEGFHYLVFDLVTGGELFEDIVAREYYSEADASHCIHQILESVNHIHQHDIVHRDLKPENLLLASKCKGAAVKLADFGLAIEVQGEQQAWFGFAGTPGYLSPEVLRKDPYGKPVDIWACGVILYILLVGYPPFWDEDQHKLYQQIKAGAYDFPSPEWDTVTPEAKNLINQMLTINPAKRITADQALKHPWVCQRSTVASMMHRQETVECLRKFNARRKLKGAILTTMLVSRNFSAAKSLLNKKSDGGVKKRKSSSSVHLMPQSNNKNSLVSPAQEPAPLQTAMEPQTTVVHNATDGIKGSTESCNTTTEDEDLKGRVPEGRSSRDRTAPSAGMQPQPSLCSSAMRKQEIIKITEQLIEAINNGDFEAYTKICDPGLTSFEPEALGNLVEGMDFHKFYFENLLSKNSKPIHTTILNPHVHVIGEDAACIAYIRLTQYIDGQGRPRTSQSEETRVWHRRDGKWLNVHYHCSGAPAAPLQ
# Chain of Proto-oncogene tyrosine-protein kinase Src (Homo sapiens) (P12931 2-536 limits assumed): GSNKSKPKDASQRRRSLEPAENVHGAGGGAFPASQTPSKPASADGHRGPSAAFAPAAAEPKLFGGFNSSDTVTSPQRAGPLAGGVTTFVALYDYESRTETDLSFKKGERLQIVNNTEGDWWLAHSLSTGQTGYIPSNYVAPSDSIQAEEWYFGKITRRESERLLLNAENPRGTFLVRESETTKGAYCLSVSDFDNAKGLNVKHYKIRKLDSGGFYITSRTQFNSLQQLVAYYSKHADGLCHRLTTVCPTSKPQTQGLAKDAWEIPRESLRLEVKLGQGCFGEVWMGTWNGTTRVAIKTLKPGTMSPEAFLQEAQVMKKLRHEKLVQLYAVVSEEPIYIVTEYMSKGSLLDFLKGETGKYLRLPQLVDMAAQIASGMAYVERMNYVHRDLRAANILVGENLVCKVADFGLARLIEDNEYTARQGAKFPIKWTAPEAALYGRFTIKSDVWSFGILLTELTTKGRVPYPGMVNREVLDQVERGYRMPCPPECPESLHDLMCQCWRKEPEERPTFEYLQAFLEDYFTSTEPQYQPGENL
structure (smiles),measurement,setting,value
N[C@H]1CC[C@H](Nc2nc(Nc3ccc(CN4CCOCC4)cc3)c3ncn(C4CCCC4)c3n2)CC1,GI50,U-937,664 nM
same,GI50,MV4-11 [1],2 nM
same,Activity,MV4-11 [2],12.3%
same,Activity,MV4-11 [3],9.9%
same,inhibition,[4],> 90%
same,inhibition,[5],> 90%
same,inhibition in vivo at 10 mg/kg,Mus musculus [6],95%
same,inhibition,[7],Active
same,GI50,K562,380 nM
same,inhibition,[8],> 90%
same,Activity,MV4-11 [9],5.6%
same,Activity,MV4-11 [10],45.9%
same,inhibition,[11],> 90%
same,Activity,MV4-11 [12],11.8%
same,Activity,MV4-11 [13],14.5%
same,Activity,MV4-11 [14],2.7%
same,GI50 at 72 h,in vitro [15],5870 nM
same,Activity,MV4-11 [16],95%
same,Activity,Rattus norvegicus [17],Non-Toxic
same,Activity,MV4-11 [18],0.8%
same,GI50,MCF7,197 nM
same,Activity,MV4-11 [19],Active
same,Activity,MV4-11 [20],3.8%
same,inhibition,[21],Active
same,inhibition,[22],Active
same,GI50,[23],34 nM
same,inhibition in vivo at 10 mg/kg,Mus musculus [24],95%
same,inhibition,[25],Active
same,Activity,MV4-11 [26],28%
same,GI50,MOLM-13,1 nM
same,Activity,Rattus norvegicus [27],Non-Toxic
same,inhibition,[28],> 90%
same,GI50 at 72 h,in vitro [29],20600 nM
same,inhibition,[30],> 90%
same,Activity,MV4-11 [31],96.5%
same,Activity,Rattus norvegicus [32],Non-Toxic
same,Activity,MV4-11 [33],Active
same,inhibition,[34],> 90%
same,IC50,[35],8 nM
same,inhibition,[36],> 90%
